Test results reported in PubChem BioAssay (NCI).
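Step 1: Grow cells in 96-well plates. Step 2: Expose to compound for 48 hours at 5 concentrations. Step 3: Interpolate endpoints linearly; if unreached, use highest concentration. GI50 is the concentration that inhibits growth by half. TGI marks complete inhibition of growth.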 *1 amine or outer side, *2 acyl side, *3 side chain or, on linkers, in order; H or OH if unused. Where a SMILES comes first, the peptide text is derived from it. The star is where a group is joined. γGlu = O=C(O)[CH](CCC(=O)[*:2])N[*:1]; NHOH = ON*

Columns and labels:
Assay in all cases: NCI-60 cell line screen, 48 h
COLO 205 colon = test system: COLO 205 colon
DMS 114 small cell lung = test system: DMS 114 small cell lung
DMS 273 small cell lung = test system: DMS 273 small cell lung
HCC-2998 colon = test system: HCC-2998 colon
HOP-18 NSCLC = test system: HOP-18 NSCLC
NCI-H522 lung = test system: NCI-H522 lung
RPMI-8226 leukemia = test system: RPMI-8226 leukemia
SK-MEL-2 melanoma = test system: SK-MEL-2 melanoma
SK-MEL-28 melanoma = test system: SK-MEL-28 melanoma
SNB-78 CNS = test system: SNB-78 CNS
SW-620 colon = test system: SW-620 colon
UACC-62 melanoma = test system: UACC-62 melanoma

Structure (SMILES)	TGI (COLO 205 colon) [µM]	TGI (DMS 114 small cell lung) [µM]	TGI (DMS 273 small cell lung) [µM]	TGI (HCC-2998 colon) [µM]	TGI (HOP-18 NSCLC) [µM]	TGI (NCI-H522 lung) [µM]	TGI (RPMI-8226 leukemia) [µM]	TGI (SK-MEL-2 melanoma) [µM]	TGI (SK-MEL-28 melanoma) [µM]	TGI (SNB-78 CNS) [µM]	TGI (SW-620 colon) [µM]	TGI (UACC-62 melanoma) [µM]	GI50 (COLO 205 colon) [µM]	GI50 (NCI-H522 lung) [µM]
CCOc1cc2c(cc1OC)c[n+](C)c1c3cc(OC)c(OC)cc3ccc21	> 100	51.3	> 100	> 100	> 80.1	> 100	> 100	> 80.6	> 100	> 89.9	> 93.5	> 100		
Cc1cnoc1/N=C1\C=C(Nc2oncc2C)C(=O)c2ccccc21	> 100	> 100	> 100	> 100	> 100		> 100	> 100	> 100	> 100	> 100	> 100		
COc1ccc(/C=C2\C(=O)N(C(=O)c3ccc(NC(C)=O)cc3)N=C2C)cc1OC	> 100	> 100	> 100	> 100	> 100	> 100	> 100	> 100	> 100	> 100	> 100			
Cc1c2ccccc2c(=O)n2c(-c3ccccn3)cccc12	> 100	> 100	> 100	> 100	> 100	> 100	> 100	> 100	> 100	> 100	> 100	> 100		
Cc1ccc(N=NC(=Nc2ccc(F)cc2)c2ccc(N(CCC#N)CCC#N)cc2)cc1	> 100			> 100		63.7	> 100	> 100	> 100		> 100	> 100		
O=C1O/C(=C(\Br)c2ccc([N+](=O)[O-])cc2)c2ccccc21	> 100			> 100		> 88.8	> 61.8	> 100	> 100		> 100	> 100		
O=C(Nc1ccc(Cl)cc1)c1cc(S(=O)(=O)Nc2nc3ncccc3[nH]2)c(SSc2cc(Cl)c(C(=O)Nc3ccc(Cl)cc3)cc2S(=O)(=O)Nc2nc3ncccc3[nH]2)cc1Cl	> 100			> 100		> 100	> 100	> 100	> 100		> 100	> 100		
CN(C)N1C(=C(C#N)C#N)C(c2ccccc2)CC1C#N (stereo unspecified)	> 100			> 100		> 100	> 100	> 100	> 100		> 100	> 100		
O=c1[nH]nc(-c2ccc3ccccc3c2)[nH]1	> 100			> 100		> 100	> 100	> 100	> 100		> 100	> 100		
CC(C)C(Sc1nc(-c2ccccc2)c(-c2ccccc2)[nH]1)C(=O)N/N=C/c1ccc(Cl)cc1 (stereo unspecified)	35.5	71.5	39.6			41.7	65.4	36.5	45.2	> 100	68.2	40.1		
CCCCOC(=O)Nc1ccc(S(=O)(=O)Nc2c(Cl)cccc2Cl)cc1	34.3			43.4		> 100	41.5	66.8	81.5		90.1	54.6		
COC(=O)C12C(=O)CC3CCC1C32C(=O)OC (stereo unspecified)	> 100			> 100		> 100	> 100	> 100	> 100		> 100	> 100		
CN(C)c1ccc(-c2c(C#N)c(-c3ccccc3)n(NS(=O)(=O)c3ccccc3)c(=O)c2C#N)cc1	> 100			> 100		> 100	48.6	> 100	> 100		> 100	> 100		
Cc1c2ccccc2c(/C=N/NC(=O)CSCC(=O)N/N=C/c2c3ccccc3c(C)c3ccccc23)c2ccccc12	> 100			65.1		> 100	51.9	> 100	> 100		> 100	> 100	> 100	> 100
CCN1CC2=C(OC(N)=C(C#N)C2c2ccc(Cl)cc2)/C(=C/c2ccc(Cl)cc2)C1 (stereo unspecified)	> 100			> 100		> 100	85.1	> 100	42.9		> 100	> 100		
COc1ccc(C2c3cc4c(cc3OC(N3CCOCC3)C2C)OCO4)cc1OC (stereo unspecified)	> 44.2			> 44.8		22.8	> 100	61.8	> 100		> 100	> 82.9		
O=S(=O)(O)c1cc(O)c(N=NC2S(=O)(=O)OCCOS2(=O)=O)c2ccccc12	> 100			> 100		> 100	> 100	> 100	> 100		> 100	> 100		
CCOC(=O)c1nc(SC)sc1NC(=O)c1ccc(OC)cc1	> 100			> 100		> 100	> 100	> 100	> 100		> 100	> 100		
NC(CCC(=O)NC(CCC(=O)NO)C(=O)NCC(=O)O)C(=O)O (stereo unspecified) (γGlu-Glu(NHOH)-Gly-OH; configuration not given here)	> 100			> 100		> 100	> 100	> 100	> 100		> 100	> 100		
COC(=O)[C@H](Cc1ccccc1)NC(=O)N(CCN(CCC#N)C(=O)N[C@H](C(=O)OC)C(C)C)c1ccccc1	> 100			> 100		> 100	> 100	> 100	> 100		> 100	> 100		
CN(C(=O)Cc1cc(Cl)c(Cl)cc1NC(=O)CCCN)[C@H]1CCCC[C@@H]1N1CCCC1	35			37.1		29.8	> 100	40.5	33		91.2	40.4		
O=C(CSc1nc2ccccc2c(=O)n1-c1ccccc1)N=Nc1c(O)[nH]c2ccc(Br)cc12	> 35.6			> 100		9.69	> 38	47.1	13.8		> 51.2	25.9		
CCCSc1ccc2[nH]c(N3C(=O)/C(=C/c4ccc(O)c(OC)c4)N=C3c3ccccc3)cc2c1	19.5			14.1		24.3	34.3	2.73	> 100		> 100	19.8		
CC(C)NC1CCCCC2c3ccccc3C12O (stereo unspecified)	> 100	> 100	> 100		> 100	> 100	> 100	> 100	> 100	> 100	> 100	> 100		
CCO/C(O)=c1/s/c(=C2/SC(=S)N(c3ccc(C)cc3)C2=O)n(-c2ccccc2)c1=N	> 100			> 100	> 100	> 100	> 100	> 100	> 76.5		> 100	> 100		
CN(C)CC1CCC/C(=C\c2ccc(Cl)c(Cl)c2)C1=O (stereo unspecified)	7.27			25.5		4.1	1.03	16.8	11.4		> 29.3	12.8		
CCCCOc1ccc(/C=C/C2=[N+](CCO)CCO2)cc1	54.3			48.3		> 100	74.7	> 100	> 100		86.5	> 100		
C/C(=N/NC(=S)N1CCCCCC1)c1cccc(/C(C)=N\NC(=S)N2CCCCCC2)n1	3.23			6.38		6.42	5.33	3.81	6		3.55	5.27		
